Test results reported in US11046680B1, “Heteroaryl-substituted triazoles as APJ receptor agonists” (priority 2016, dated 2021).
pEC50: −log10 of the molar value.

Columns and labels:
[1] = system: heart failure rat model (MI Rat Model); test: In vivo cardiac contractility in heart failure (MI) rat model; set-up: species or system Lewis rat; conditions: heart failure rats in vivo, acute settings
Description: Evidence for Improvement in Cardiac Contractility In Vivo in Heart Failure Rat Model
Based on the ex vivo findings in isolated heart assay, APJ agonists were dosed in vivo to investigate the translation of cardiac contractility in in vivo settings. Male Lewis rats (Charles River, USA) at 2-3 months of age were used for the study. Heart failure was induced by permanent ligation of the left descending coronary artery which results in injury to the heart with an ejection fraction of <35%. APJ agonists were administered dose dependently acutely for a period of 30 min. Administration of example compounds lead to an increase in cardiac contractility as measured by dP/dtmax (derivative of left ventricular pressure) (Table 41).

[2] = cited from earlier work
human APJ receptor = human APJ receptor (Homo sapiens (Human), UniProt P35414); test: biochemical; type: biochemical; conditions: [35S]GTPγS binding, CHO membranes expressing human APJ receptor; read-out: Activity hAPJ SPA EC50 IP
Method in brief: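 GTPγS binding on membranes from CHO cells stably expressing FLAG-tagged human APJ, with optimized GDP, MgCl2 and NaCl; incubated 90 min at RT before imaging read-out.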

Sequence of human APJ receptor (P35414 whole entry): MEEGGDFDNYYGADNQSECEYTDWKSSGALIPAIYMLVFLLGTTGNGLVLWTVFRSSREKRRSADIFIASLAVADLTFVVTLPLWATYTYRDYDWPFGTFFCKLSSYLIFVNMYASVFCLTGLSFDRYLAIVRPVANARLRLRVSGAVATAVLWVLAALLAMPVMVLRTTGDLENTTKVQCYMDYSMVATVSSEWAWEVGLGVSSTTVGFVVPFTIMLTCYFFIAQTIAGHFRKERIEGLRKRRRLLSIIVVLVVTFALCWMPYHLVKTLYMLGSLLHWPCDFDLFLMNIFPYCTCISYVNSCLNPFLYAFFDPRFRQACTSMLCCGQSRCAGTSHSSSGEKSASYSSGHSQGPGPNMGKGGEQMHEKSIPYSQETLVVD

Compound	pEC50 (human APJ receptor)	other results
C[C@H](CS)C(=O)N1CCC[C@H]1C(=O)O [Captopril]	–	improvement in contractility or ejection fraction [1]: does not show a marked improvement in contractility or ejection fraction
Apelin-13 (QRPRLSHKGPMPF; Apelin-13; UniProt Q9ULZ1 65-77, looked up)	–	plasma half-life [2]: < 5 min
COc1ccc(N2CCC2=O)cc1-n1c(NS(=O)(=O)CCc2ccc(F)cc2Br)nnc1-c1cccs1 [Example 131.0, 2-(2-Bromo-4-fluorophenyl)-N-(4-(2-methoxy-5-(2-oxoazetidin-1-yl)phenyl)-5-(thiophen-2-yl)-4H-1,2,4-triazol-3-yl)ethanesulfonamide]	8.39	–
COc1cccc(OC)c1-n1c(NS(=O)(=O)[C@@H](C)[C@H](OC)c2ncc(C)cn2)nnc1-c1c(C)nc2ccccn12 [Example 410.0, (1R,25)-N-(4-(2,6-dimethoxyphenyl)-5-(2-methylimidazo[1,2-a]pyridin-3-yl)-4H-1,2,4-triazol-3-yl)-1-methoxy-1-(5-methylpyrimidin-2-yl)propane-2-sulfonamide]	6.03	–
COCC1(n2c(NS(=O)(=O)[C@@H](C)[C@H](OC)c3ncc(Cl)cn3)nnc2-c2n[nH]c3c2CCCC3)CC1 [Example 491.0, (1R,2S)-1-(5-chloropyrimidin-2-yl)-1-methoxy-N-(4-(1-(methoxymethyl)cyclopropyl)-5-(4,5,6,7-tetrahydro-1H-indazol-3-yl)-4H-1,2,4-triazol-3-yl)propane-2-sulfonamide]	7.82	–
COc1ncnc(OC)c1-n1c(NS(=O)(=O)[C@@H](C)[C@H](C)c2ccc(Cl)cn2)nnc1-c1ccn(C)n1 [Example 534.0, (2S,3R)-3-(5-chloro-2-pyridinyl)-N-(4-(4,6-dimethoxy-5-pyrimidinyl)-5-(1-methyl-1H-pyrazol-3-yl)-4H-1,2,4-triazol-3-yl)-2-butanesulfonamide]	9.03	–
COc1ccc(N2CCC2=O)cc1-n1c(NS(=O)(=O)CCc2ccc(F)cc2C#N)nnc1-c1cccs1 [Example 132.0, 2-(2-Cyano-4-fluorophenyl)-N-(4-(2-methoxy-5-(2-oxoazetidin-1-yl)phenyl)-5-(thiophen-2-yl)-4H-1,2,4-triazol-3-yl)ethanesulfonamide]	9.62	–
COc1cccc(OC)c1-n1c(NS(=O)(=O)[C@@H](C)[C@H](OC)c2cnc(C)cn2)nnc1-c1cc2n(n1)CCC2 [Example 216.0, (1R,2S)-N-(5-(5,6-dihydro-4H-pyrrolo[1,2-b]pyrazol-2-yl)-4-(2,6-dimethoxyphenyl)-4H-1,2,4-triazol-3-yl)-1-methoxy-1-(5-methyl-2-pyrazinyl)-2-propanesulfonamide]	8.43	–
COc1ccccc1-n1c(NS(=O)(=O)Cc2ccc(Cl)cc2)nnc1-c1cccs1 [Example 385.0, 1-(4-Chlorophenyl)-N-(4-(2-methoxyphenyl)-5-(thiophen-2-yl)-4H-1,2,4-triazol-3-yl)methanesulfonamide]	< 4.90	–
COc1ncnc(OC)c1-n1c(NS(=O)(=O)[C@@H](C)[C@H](OC)c2ncc(Cl)cn2)nnc1-c1noc2ccccc12 [Example 420.0, (1R,2S)-N-(5-(benzo[d]isoxazol-3-yl)-4-(4,6-dimethoxypyrimidin-5-yl)-4H-1,2,4-triazol-3-yl)-1-(5-chloropyrimidin-2-yl)-1-methoxypropane-2-sulfonamide]	7.57	–
(R)-N-(4-(2,6-dimethoxyphenyl)-5-(pyrimidin-2-yl)-4H-1,2,4-triazol-3-yl)-1-(5-fluoropyrimidin-2-yl)propane-2-sulfonamide and (S)-N-(4-(2,6-dimethoxyphenyl)-5-(pyrimidin-2-yl)-4H-1,2,4-triazol-3-yl)-1-(5-fluoropyrimidin-2-yl)propane-2-sulfonamide [Example 56.0]	7.13	–
CO[C@H](c1ncc(Cl)cn1)[C@H](C)S(=O)(=O)Nc1nnc(-c2cnn3c2CCC3)n1C1CC1 [Example 478.0]	7.96	–
COCC(COC)n1c(NS(=O)(=O)[C@@H](C)[C@H](C)c2cnc(OC)cn2)nnc1-c1ccn(C)n1 [Example 453.0, (2S,3R)-N-(4-(1,3-dimethoxy-2-propanyl)-5-(1-methyl-1H-pyrazol-3-yl)-4H-1,2,4-triazol-3-yl)-3-(5-methoxy-2-pyrazinyl)-2-butanesulfonamide]	7.14	–
COc1cccc(OC)c1-n1c(NS(=O)(=O)[C@@H](C)[C@H](OC)c2ncc(Cl)cn2)nnc1-c1cnn2c1CCC2 [Example 488.0, (1R,2S)-1-(5-chloropyrimidin-2-yl)-N-(5-(5,6-dihydro-4H-pyrrolo[1,2-b]pyrazol-3-yl)-4-(2,6-dimethoxyphenyl)-4H-1,2,4-triazol-3-yl)-1-methoxypropane-2-sulfonamide]	9.70	–
COc1cccc(OC)c1-n1c(NS(=O)(=O)[C@@H](C)[C@H](C)c2ncc(C)cn2)nnc1-c1cc2n(n1)CCC2 [Example 219.0, (2S,3R)-N-(5-(5,6-dihydro-4H-pyrrolo[1,2-b]pyrazol-2-yl)-4-(2,6-dimethoxyphenyl)-4H-1,2,4-triazol-3-yl)-3-(5-methyl-2-pyrimidinyl)-2-butanesulfonamide]	8.77	–
COc1cccc(OC)c1-n1c(NS(=O)(=O)[C@H](C)[C@@H](C)c2ncc(C)cn2)nnc1-c1n[nH]c2ccccc12 [Example 431.0, (2R,3S)-N-(4-(2,6-dimethoxyphenyl)-5-(1H-indazol-3-yl)-4H-1,2,4-triazol-3-yl)-3-(5-methylpyrimidin-2-yl)butane-2-sulfonamide]	7.85	–
COc1cccc(OC)c1-n1c(NS(=O)(=O)CCc2ccc(F)cc2C#N)nnc1-c1nc(C)cs1 [Example 147.0, 2-(2-Cyano-4-fluorophenyl)-N-(4-(2,6-dimethoxyphenyl)-5-(4-methylthiazol-2-yl)-4H-1,2,4-triazol-3-yl)ethanesulfonamide]	8.89	–
COc1cccc(OC)c1-n1c(NS(=O)(=O)[C@H](C)Cc2ncc(F)cn2)nnc1-c1ccncn1 (single isomer, unassigned) [Example 38.0, (R)-N-(4-(2,6-dimethoxyphenyl)-5-(pyrimidin-4-yl)-4H-1,2,4-triazol-3-yl)-1-(5-fluoropyrimidin-2-yl)propane-2-sulfonamide or (R)-N-(4-(2,6-dimethoxyphenyl)-5-(pyrimidin-4-yl)-4H-1,2,4-triazol-3-yl)-1-(5-fluoropyrimidin-2-yl)propane-2-sulfonamide]	7.08	–
COc1cccc(OC)c1-n1c(NS(=O)(=O)CCc2ccc(F)cc2C#N)nnc1-c1nc(C2CC2)cs1 [Example 155.0, 2-(2-cyano-4-fluorophenyl)-N-(5-(4-cyclopropylthiazol-2-yl)-4-(2,6-dimethoxyphenyl)-4H-1,2,4-triazol-3-yl)ethanesulfonamide]	8.00	–
COc1cccc(OC)c1-n1c(NS(=O)(=O)CCc2ccc(Cl)cc2)nnc1-c1nccs1 [Example 136.0, 2-(4-chlorophenyl)-N-(4-(2,6-dimethoxyphenyl)-5-(thiazol-2-yl)-4H-1,2,4-triazol-3-yl)ethanesulfonamide]	7.46	–
COc1cccc(OC)c1-n1c(NS(=O)(=O)CCc2ccc(Cl)cc2)nnc1-c1cncn1C [Example 93.0, 2-(4-chlorophenyl)-N-(4-(2,6-dimethoxyphenyl)-5-(1-methyl-1H-imidazol-5-yl)-4H-1,2,4-triazol-3-yl)ethanesulfonamide]	7.70	–
COc1ccc(N2CCCC2=O)cc1-n1c(NS(=O)(=O)CCc2ccc(Cl)cc2)nnc1-c1cccs1 [Example 125.0, 2-(4-Chlorophenyl)-N-(4-(2-methoxy-5-(2-oxo-1-pyrrolidinyl)phenyl)-5-(2-thiophenyl)-4H-1,2,4-triazol-3-yl)ethanesulfonamide]	7.62	–
COc1cccc(OC)c1-n1c(NS(=O)(=O)[C@@H](C)[C@@H](OC(C)C)c2ncc(C)cn2)nnc1-c1noc(C)c1C [Example 517.0, (1S,2S)-N-(4-(2,6-dimethoxyphenyl)-5-(4,5-dimethylisoxazol-3-yl)-4H-1,2,4-triazol-3-yl)-1-isopropoxy-1-(5-methylpyrimidin-2-yl)propane-2-sulfonamide]	8.52	–
(R)-N-(4-(2,6-dimethoxyphenyl)-5-(1-methyl-1H-pyrazol-4-yl)-4H-1,2,4-triazol-3-yl)-1-(5-fluoropyrimidin-2-yl)propane-2-sulfonamide and (R)-N-(4-(2,6-dimethoxyphenyl)-5-(1-methyl-1H-pyrazol-4-yl)-4H-1,2,4-triazol-3-yl)-1-(5-fluoropyrimidin-2-yl)propane-2-sulfonamide [Example 40.0]	8.28	–
COc1cccc(OC)c1-n1c(NS(=O)(=O)[C@H](C)Cc2ncc(F)cn2)nnc1-c1nc(C2CC2)cs1 (single isomer, unassigned) [Example 160.0, (R)-N-(5-(4-cyclopropylthiazol-2-yl)-4-(2,6-dimethoxyphenyl)-4H-1,2,4-triazol-3-yl)-1-(5-fluoropyrimidin-2-yl)propane-2-sulfonamide or (S)-N-(5-(4-cyclopropylthiazol-2-yl)-4-(2,6-dimethoxyphenyl)-4H-1,2,4-triazol-3-yl)-1-(5-fluoropyrimidin-2-yl)propane-2-sulfonamide]	8.70	–
